For the assay, the target named is T1, human Orexin-2 receptor (Homo sapiens, UniProt O43614).
T1 construct: expressed in transfected cells; host or cells: HEK293 cells (transient transfection, Genejuice); membranes
T1 sequence (O43614 1-444): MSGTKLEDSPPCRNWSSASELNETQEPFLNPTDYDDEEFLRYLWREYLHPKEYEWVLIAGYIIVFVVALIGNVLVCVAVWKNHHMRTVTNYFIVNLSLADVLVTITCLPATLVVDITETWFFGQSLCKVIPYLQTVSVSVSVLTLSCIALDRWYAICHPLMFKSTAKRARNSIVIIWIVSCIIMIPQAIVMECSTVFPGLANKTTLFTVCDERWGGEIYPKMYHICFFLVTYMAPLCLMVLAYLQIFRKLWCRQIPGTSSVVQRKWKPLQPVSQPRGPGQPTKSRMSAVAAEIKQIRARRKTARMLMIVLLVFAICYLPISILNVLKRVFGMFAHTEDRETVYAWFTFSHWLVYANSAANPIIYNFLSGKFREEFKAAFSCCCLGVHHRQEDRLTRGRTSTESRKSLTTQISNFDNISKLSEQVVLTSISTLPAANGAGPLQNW
Description: 3H-EMPA radioligand binding assay. Conditions: 3H-EMPA displacement, membranes of HEK293 cells transfected with human Orexin-2 receptor; KI by Cheng-Prussoff; read-out: OX2 pKi ave (converted). As for the experimental part: cDNA encoding the human Orexin-2 receptor was transfected into HEK293 cells using the transfection reagent Genejuice (Novagen). Forty-eight hours after transfection, cells were harvested and washed twice with ice cold phosphate-buffered saline. The pellet was resuspended in ice-cold buffer containing 20 mM Tris-HCl, pH 7.4, 1 mM EDTA and homogenised with an Ultraturax for 30 s at maximum speed. After centrifugation at 48,000 g for 30 min at 4° C., the pellet was resuspended and spun again. The final pellet was resuspended and frozen at −80° C. before use. Protein concentration was determined using the BCA protein assay method.
^3H-EMPA Radioligand Binding Assay
At the end of the incubation, membranes were filtered onto a unifilter, a 96-well white microplate with bonded GF/B filter pre-incubated with 0.5% polyethylenimine, with a Tomtec cell harvester and washed 4 times with distilled water. […] Radioactivity on the filter was counted (1 min) on a microbeta counter after addition of 50 µL of scintillation fluid. […] IC50 values were derived from the inhibition curve and the equilibrium dissociation constant (KI) values were calculated using the Cheng-Prussoff equation.
With `COc1ccc(N2C(=O)N(Cc3c(F)cccc3Cl)c3ccncc3S2(=O)=O)cc1OC` [Example 91, 4-(2-Chloro-6-fluorobenzyl)-2-(3,4-dimethoxyphenyl)-2H-pyrido[4,3-e][1,2,4]thiadiazin-3(4H)-one 1,1-dioxide], the Ki is 38 nM.
Turning to `COc1cc(OC)cc(N2C(=O)N(Cc3c(F)cccc3Cl)c3ccccc3S2(=O)=O)c1` [Example 69, 4-(2-Chloro-6-fluorobenzyl)-2-(3,5-dimethoxyphenyl)-2H-1,2,4-benzothiadiazin-3(4H)-one 1,1-dioxide], the Ki is 1.07 nM.
On to `Cc1cc(C)cc(N2C(=O)N(Cc3ccccc3F)c3ccccc3S2(=O)=O)c1` [Example 56, 4-(2-fluorobenzyl)-2-(3,5-dimethylphenyl)-2H-1,2,4-benzothiadiazin-3(4H)-one 1,1-dioxide], for which the Ki is 20.9 nM.
As to `COc1ccc(N2C(=O)N(Cc3c(F)cccc3Cl)c3ncccc3S2(=O)=O)nc1OC` [Example 168, 4-(2-Chloro-6-fluorobenzyl)-2-(5,6-dimethoxypyridin-2-yl)-2H-pyrido[2,3-e][1,2,4]thiadiazin-3(4H)-one 1,1-dioxide], the Ki was 1.23 nM.
The result for `COc1cc(F)c(CN2C(=O)N(c3ccc(OC)nc3)S(=O)(=O)c3ccccc32)c(Cl)c1` [Example 154, 4-(2-Chloro-6-fluoro-4-methoxybenzyl)-2-(6-methoxypyridin-3-yl)-2H-1,2,4-benzothiadiazin-3(4H)-one 1,1-dioxide] reads 3.02 nM; that for `O=C1N(Cc2c(F)cccc2Cl)c2ccccc2S(=O)(=O)N1c1ccc(Cl)cc1` [Example 24, 4-(2-chloro-6-fluorobenzyl)-2-(4-chlorophenyl)-2H-1,2,4-benzothiadiazin-3(4H)-one 1,1-dioxide], 7.08 nM; that for `COc1ccc(N2C(=O)N(Cc3ccc(F)cc3)c3ccccc3S2(=O)=O)cc1OC` [Example 8, 2-(3,4-dimethoxyphenyl)-4-(4-fluorobenzyl)-2H-1,2,4-benzothiadiazin-3(4H)-one 1,1-dioxide], 56.2 nM.
Then `Cn1cc(N2C(=O)N(Cc3c(F)cccc3Cl)c3ccccc3S2(=O)=O)ccc1=O` [Example 132, 4-(2-Chloro-6-fluorobenzyl)-2-(1-methyl-6-oxo-1,6-dihydropyridin-3-yl)-2H-1,2,4-benzothiadiazin-3(4H)-one 1,1-dioxide], with 302 nM; and `COc1ccc(N2C(=O)N(Cc3c(F)cccc3Cl)c3ccccc3S2(=O)=O)cn1` [Example 122, 4-(2-Chloro-6-fluorobenzyl)-2-(6-methoxypyridin-3-yl)-2H-1,2,4-benzothiadiazin-3(4H)-one 1,1-dioxide], with 16.6 nM; and `O=C1N(Cc2c(F)cccc2Cl)c2ccccc2S(=O)(=O)N1c1ccc(F)cc1` [Example 44, 4-(2-chloro-6-fluorobenzyl)-2-(4-fluorophenyl)-2H-1,2,4-benzothiadiazin-3(4H)-one 1,1-dioxide], with 31.6 nM.
The result for `COc1cc(F)c(CN2C(=O)N(c3ccc(C)c(OC)n3)S(=O)(=O)c3cccnc32)c(F)c1` [Example 175, 4-(2,6-Difluoro-4-methoxybenzyl)-2-(6-methoxy-5-methylpyridin-2-yl)-2H-pyrido[2,3-e][1,2,4]thiadiazin-3(4H)-one 1,1-dioxide] reads 1.35 nM; that for `O=C1N(Cc2c(F)cccc2Cl)c2ccccc2S(=O)(=O)N1c1cccc(SC(F)(F)F)c1` [Example 73, 4-(2-Chloro-6-fluorobenzyl)-2-{3-[(trifluoromethyl)sulfanyl]phenyl}-2H-1,2,4-benzothiadiazin-3(4H)-one 1,1-dioxide], 2.09 nM.
With `CNc1cc(N2C(=O)N(Cc3c(F)cc(OC)cc3F)c3ccccc3S2(=O)=O)cnc1OC` [Example 181, 4-(2,6-difluoro-4-methoxybenzyl)-2-[6-methoxy-5-(methylamino)pyridin-3-yl]-2H-1,2,4-benzothiadiazin-3(4H)-one 1,1-dioxide], the Ki is 1.62 nM.
The result for `Cn1nc(CN2C(=O)N(Cc3c(F)cccc3F)c3ccccc3S2(=O)=O)c2ccccc21` [Example 125, 4-(2,6-Difluorobenzyl)-2-[(1-methyl-1H-indazol-3-yl)methyl]-2H-1,2,4-benzothiadiazin-3(4H)-one 1,1-dioxide] reads 38 nM.
The result for `COc1ccc(N2C(=O)N(Cc3c(C)cccc3C)c3ccccc3S2(=O)=O)cc1OC` [Example 77, 4-(2,6-Dimethylbenzyl)-2-(3,4-methoxyphenyl)-2H-1,2,4-benzothiadiazin-3(4H)-one 1,1-dioxide] reads 8.91 nM.
The result for `Cc1cc(C)cc(N2C(=O)N(Cc3ccccc3Cl)c3ccccc3S2(=O)=O)c1` [Example 55, 4-(2-chlorobenzyl)-2-(3,5-dimethylphenyl)-2H-1,2,4-benzothiadiazin-3(4H)-one 1,1-dioxide] reads 30.9 nM; that for `O=C1N(Cc2c(F)cccc2F)c2ccccc2S(=O)(=O)N1Cc1cc(=O)[nH]c2ccccc12` [Example 126, 4-(2,6-Difluorobenzyl)-2-[(2-oxo-1,2-dihydroquinolin-4-yl)methyl]-2H-1,2,4-benzothiadiazin-3(4H)-one 1,1-dioxide], 35.5 nM.
On to `COc1cc(F)c(CN2C(=O)N(c3ccnc(OC)c3)S(=O)(=O)c3ccccc32)c(F)c1` [Example 140, 4-(2,6-Difluoro-4-methoxybenzyl)-2-(2-methoxypyridin-4-yl)-2H-1,2,4-benzothiadiazin-3(4H)-one 1,1-dioxide], for which the Ki is 3.31 nM.
Then `N#Cc1ccc(CN2C(=O)N(Cc3c(F)cccc3F)c3ccccc3S2(=O)=O)cc1F` [Example 65, 4-{[4-(2,6-Difluorobenzyl)-1,1-dioxido-3-oxo-3,4-dihydro-2H-1,2,4-benzothiadiazin-2-yl]methyl}-2-fluorobenzonitrile], with 200 nM.
The result for `CNc1nc(N2C(=O)N(Cc3c(F)cc(OC)cc3F)c3ccccc3S2(=O)=O)ccc1OC` [Example 179, 4-(2,6-difluoro-4-methoxybenzyl)-2-[5-methoxy-6-(methylamino)pyridin-2-yl]-2H-1,2,4-benzothiadiazin-3(4H)-one 1,1-dioxide] reads 3.72 nM; that for `COc1c(C)cc(N2C(=O)N(Cc3c(F)cc(F)cc3F)c3ccccc3S2(=O)=O)cc1C` [Example 115, 2-(4-methoxy-3,5-dimethylphenyl)-4-(2,4,6-trifluorobenzyl)-2H-1,2,4-benzothiadiazin-3(4H)-one 1,1-dioxide], 0.355 nM; that for `COc1cc(N2C(=O)N(Cc3c(F)cc(F)cc3Cl)c3ncccc3S2(=O)=O)cnc1OC` [Example 185, 4-(2-Chloro-4,6-difluorobenzyl)-2-(5,6-dimethoxypyridin-3-yl)-2H-pyrido[2,3-e][1,2,4]thiadiazin-3(4H)-one 1,1-dioxide], 4.17 nM.
Take `COc1cc(N2C(=O)N(Cc3c(F)cccc3Cl)c3ccccc3S2(=O)=O)ccn1` [Example 143, 4-(2-Chloro-6-fluorobenzyl)-2-(2-methoxypyridin-4-yl)-2H-1,2,4-benzothiadiazin-3(4H)-one 1,1-dioxide]: the Ki was 15.8 nM.
The result for `COc1ccnc(CN2C(=O)N(Cc3c(F)cccc3F)c3ccccc3S2(=O)=O)c1OC` [Example 121, 4-(2,6-Difluorobenzyl)-2-[(3,4-dimethoxypyridin-2-yl)methyl]-2H-1,2,4-benzothiadiazin-3(4H)-one 1,1-dioxide] reads 87.1 nM.
The result for `COc1cc(F)c(CN2C(=O)N(c3cc(OC)nc(OC)c3)S(=O)(=O)c3ccccc32)c(F)c1` [Example 149, 4-(2,6-Difluoro-4-methoxybenzyl)-2-(2,6-dimethoxypyridin-4-yl)-2H-1,2,4-benzothiadiazin-3(4H)-one 1,1-dioxide] reads 0.138 nM; that for `CSc1cccc(N2C(=O)N(Cc3ncccc3C)c3ccccc3S2(=O)=O)c1` [Example 87, 4-[(3-Methylpyridin-2-yl)methyl]-2-[3-(methylsulfanyl)phenyl]-2H-1,2,4-benzothiadiazin-3(4H)-one 1,1-dioxide], 35.5 nM; that for `COc1cc(F)c(CN2C(=O)N(c3ccc(OC)c(OC)c3)S(=O)(=O)c3ccccc32)c(F)c1` [Example 108, 2-(3,4-Dimethoxyphenyl)-4-(2,6-difluoro-4-methoxybenzyl)-2H-1,2,4-benzothiadiazin-3(4H)-one 1,1-dioxide], 0.468 nM.
Then `COc1cccc(CN2C(=O)N(c3cc(OC)cc(OC)c3)S(=O)(=O)c3ccccc32)c1` [Example 3, 2-(3,5-dimethoxyphenyl)-4-(3-methoxybenzyl)-2H-1,2,4-benzothiadiazin-3(4H)-one 1,1-dioxide], with 447 nM.
Take `O=C1N(Cc2c(F)cccc2Cl)c2ccccc2S(=O)(=O)N1Cc1ccccc1` [Example 40, 2-benzyl-4-(2-chloro-6-fluorobenzyl)-2H-1,2,4-benzothiadiazin-3(4H)-one 1,1-dioxide]: the Ki was 26.3 nM.

The values above are taken from patent US10316028B2, “Orexin receptor antagonists” (Heptares Therapeutics Limited, priority 2012, dated 2019).
